{"source": "patent US6765128B1", "about": "“Method of using a pathogen-activatable map kinase to enhance disease resistance in plants” (priority 1998, dated 2004)", "key": {"[1]": {"system": "SIPK", "conditions": "Zhang & Klessig, 1997; cited from earlier work"}, "[2]": {"system": "48-kD SIPK", "assay": "Phosphatase treatment of protein extracts, then in-gel kinase activity assay", "assay_type": "biochemical, tobacco", "conditions": "okadaic acid 1 μM; Na3VO4 1 mM", "procedure": "(§1) In-gel kinase activity assay. The in-gel kinase activity assay was performed as described previously (zhang & Klessig, 1997). The relative kinase activity were quantitated using a PhosphorImager (Molecular Dynamics Inc., Sunnyvale, Calif.) and normalized to the level present at the zero time point for the 48-kD kinase, which was given a value of 1.\n(§2) Treatment of protein extracts with phosphatases. Protein extracts were prepared in the absence of phosphatase inhibitors from TMV-infected leaves at 8 hr after shifting plants from 32° C. to 22° C. or 48 hr after infection at 22° C. Samples containing 20 μg of protein were treated with either the serine/threonine-specific phosphatase, PP-2A1 (0.25 units in 30 μL; Upstate Biotechnology, Lake Placid, N.Y.), or the tyrosine-specific protein phosphatase, YOP (2 units in 30 μL; NEB), for 20 min at 30° C. in the presence or absence of a phosphatase inhibitor. The PP-2A1 inhibitor, okadaic acid, and YOP inhibitor, Na3VO4 were used at a concentration of 1 μM and 1 mM, respectively. After phosphatase treatment, kinase activity was detected by the in-gel kinase activity assay."}, "[3]": {"system": "WIPK-encoded 44-kD kinase", "assay": "Phosphatase treatment of protein extracts, then in-gel kinase activity assay", "assay_type": "biochemical, tobacco", "conditions": "okadaic acid 1 μM; Na3VO4 1 mM", "procedure": "as §1, §2"}, "[4]": {"system": "His-tagged WIPK protein", "assay": "Immunoblot analysis of Ab-p44N against a panel of His-tagged MAP kinases", "assay_type": "binding, tobacco", "conditions": "0.2 μg/mL competitor peptide", "procedure": "Antibody production and immunoblot analysis. The peptides p44N (MADANMGAGGGQFPDFPS; SEQ ID NO: 2) and p48N ([…]; SEQ ID NO: 3), which correspond respectively to the unique N-termini of the WIPK and the SIPK proteins, were synthesized and conjugated to keyhole limpet hemacyanin (KLH) carrier. Polyclonal antisera were raised in rabbits and purified by affinity column chromatography (Zymed Laboratory, South San Francisco, Calif.).\nFor immunoblot analysis, 20 μg of total protein per lane were separated on 10% SDS-polyacrylamide gels, and the proteins were transferred to nitrocellulose membranes (Schleicher & Schuell, Inc., Keene, N.H.) by semi-dry electroblotting. […]\nThe 44-kD kinase activated by TWV in encoded by WIPK. […] The specificity of the Ab-p44N was assessed by immunoblot analysis against a panel of different MAP kinases as described above for Ab-p48N."}}}
{"molecule": "O=C(O)c1ccccc1O", "note": "[SA, salicylic acid]", "values": [{"measurement": "Activation of SIPK by treatment", "setting": "[1]", "value": "activated"}]}
{"molecule": "[Na+].[Na+].[Na+].[O]=[V]([O-])([O-])[O-]", "note": "[vanadate, Na3VO4]", "values": [{"measurement": "Effect of phosphatase inhibitor on inactivation of SIPK by PP-2A1 and YOP", "setting": "[2]", "value": "prevented"}, {"measurement": "Effect of phosphatase inhibitor on inactivation of WIPK by PP-2A1 and YOP", "setting": "[3]", "value": "prevented"}]}
{"molecule": "MADANMGAGGGQFPDFPS [p44N]", "values": [{"measurement": "Effect of competitor peptide on binding of Ab-p44N to His-tagged WIPK protein", "setting": "[4]", "value": "blocked binding"}]}
{"molecule": "MDGSGQQTDTMMSDAGAEQPPTAP [p48N, peptide corresponding to the unique N-terminus of SIPK]", "values": [{"measurement": "Effect of competitor peptide on binding of Ab-p44N to His-tagged WIPK protein", "setting": "[4]", "value": "not"}]}
{"molecule": "C=C1[C@@H](O)[C@@H]2O[C@]3(CC[C@H](/C=C/[C@@H](C)[C@@H]4CC(C)=C[C@@]5(O[C@H](C[C@@](C)(O)C(=O)O)CC[C@H]5O)O4)O3)CC[C@H]2O[C@@H]1[C@@H](O)C[C@H](C)[C@H]1O[C@@]2(CCCCO2)CC[C@H]1C", "note": "[okadaic acid]", "values": [{"measurement": "Effect of phosphatase inhibitor on inactivation of SIPK by PP-2A1 and YOP", "setting": "[2]", "value": "prevented"}, {"measurement": "Effect of phosphatase inhibitor on inactivation of WIPK by PP-2A1 and YOP", "setting": "[3]", "value": "prevented"}]}
